The molecules below were run against T1, reTAPON1-LIKE (Trichoderma atroviride, UniProt A0A4D6GQM1). Conditions: 25 °C.
T1 construct: 30-aa signal peptide removed (438-residue ORF, 1317 bp), N-terminal GST tag kept (pGEX-4T-1), E. coli Origami B (DE3), about 71 kDa fusion
Format: biochemical
With `CCOP(=O)(OCC)Oc1nc(Cl)c(Cl)cc1Cl` [Chlorpyrifos-oxon] the Km was 320 ± 50 µM.
`COP(=O)(OC)OC=C(Cl)Cl` [Dichlorvos, 2,2-dichlorovinyl dimethyl phosphate] gave a Km of 230 ± 20 µM.
For `CCOC(=O)CC(SP(=O)(OC)OC)C(=O)OCC` (centres unmarked) [Malaoxon], the Km was 720 ± 10 µM.
For `COC(=O)C=C(C)OP(=O)(OC)OC` [Mevinphos], the Km was 440 ± 40 µM.
`CNC(=O)CSP(=O)(OC)OC` [Omethoate] showed a Km of 790 ± 120 µM.

— doi:10.1101/416081v1 (biorxiv, 2018)
